In publication PMC4063723, “Mechanisms of Pyrethroid Resistance in the Dengue Mosquito Vector, Aedes aegypti: Target Site Insensitivity, Penetration, and Metabolism” (PLoS Neglected Tropical Diseases, 2014):
Residue numbers refer to the chain shown, from its start.

How the values were obtained:
Experiment in all cases: HPTLC autoradiography of metabolites, insect-cell microsomes
Type in all cases: biochemical
Conditions in all cases: NADPH, pH 7.5, 25 C, co-expressed reductase and b5; labelled compound; product 4'-HO-permethrin
CYP6BB2 = molecular target: T1, CYP6BB2 (Aedes aegypti, UniProt Q16F58)
T1 construct: gene 5565578; full-length cDNA from SP strain, baculovirus/Sf9 (expressSF+) microsomes, co-expressed with A. aegypti P450 reductase and cytochrome b5; with NADPH--cytochrome P450 reductase; Cytochrome b5
T1 sequence (Q16F58 1-507): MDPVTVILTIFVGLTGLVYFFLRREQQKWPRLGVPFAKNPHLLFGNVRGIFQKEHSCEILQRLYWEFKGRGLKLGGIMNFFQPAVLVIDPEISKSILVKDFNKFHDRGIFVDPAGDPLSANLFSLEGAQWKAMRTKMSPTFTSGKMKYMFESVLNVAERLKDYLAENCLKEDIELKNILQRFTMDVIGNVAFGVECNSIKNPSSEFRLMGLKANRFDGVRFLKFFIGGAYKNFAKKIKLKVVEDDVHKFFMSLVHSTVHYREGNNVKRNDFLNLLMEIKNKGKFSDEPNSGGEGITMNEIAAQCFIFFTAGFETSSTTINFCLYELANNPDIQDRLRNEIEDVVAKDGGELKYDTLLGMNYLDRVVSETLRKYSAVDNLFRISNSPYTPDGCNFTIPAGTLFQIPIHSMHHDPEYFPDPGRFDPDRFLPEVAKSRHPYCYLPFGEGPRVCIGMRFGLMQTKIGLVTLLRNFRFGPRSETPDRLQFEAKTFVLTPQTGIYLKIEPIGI

CYP9M6v2 = molecular target: T2, CYP9M6v2 (Aedes aegypti, UniProt X5HYQ8)
T2 construct: full-length cDNA from SP strain (533 residues), baculovirus/Sf9 (expressSF+) microsomes, co-expressed with A. aegypti P450 reductase and cytochrome b5; with NADPH--cytochrome P450 reductase; Cytochrome b5
T2 sequence (X5HYQ8 1-533): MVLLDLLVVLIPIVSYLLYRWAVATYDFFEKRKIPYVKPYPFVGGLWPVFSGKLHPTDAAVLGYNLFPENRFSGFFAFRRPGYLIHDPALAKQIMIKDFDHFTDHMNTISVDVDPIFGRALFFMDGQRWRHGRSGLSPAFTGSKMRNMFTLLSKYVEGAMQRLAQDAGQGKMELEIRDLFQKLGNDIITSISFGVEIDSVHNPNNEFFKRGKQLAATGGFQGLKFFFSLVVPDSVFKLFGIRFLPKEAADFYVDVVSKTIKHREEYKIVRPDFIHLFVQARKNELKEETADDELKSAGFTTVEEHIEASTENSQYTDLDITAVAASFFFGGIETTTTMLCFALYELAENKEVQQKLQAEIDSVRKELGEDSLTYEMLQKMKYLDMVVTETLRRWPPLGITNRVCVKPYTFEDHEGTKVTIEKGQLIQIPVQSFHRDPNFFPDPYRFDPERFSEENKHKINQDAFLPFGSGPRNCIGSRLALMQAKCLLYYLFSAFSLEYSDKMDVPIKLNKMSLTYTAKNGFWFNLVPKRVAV

CYP9M6v1 = molecular target: T3, CYP9M6v1 (Aedes aegypti, UniProt X5I1U9)
T3 construct: full-length cDNA from SP strain (533 residues), baculovirus/Sf9 (expressSF+) microsomes, co-expressed with A. aegypti P450 reductase and cytochrome b5; with NADPH--cytochrome P450 reductase; Cytochrome b5
T3 sequence (X5I1U9 1-533): T2 sequence (X5HYQ8 1-533) with G170R, I176V, E348G, D370G, M376V, V527L, R530K

Structure (SMILES): CC1(C)C(C=C(Cl)Cl)C1C(=O)OCc1cccc(Oc2ccccc2)c1 (stereo not drawn) [[14C]-(1RS)-trans-permethrin]
- HPTLC autoradiography of metabolites, insect-cell microsomes (CYP6BB2): CYP6BB2 exhibited strong metabolic activity for permethrin
- HPTLC autoradiography of metabolites, insect-cell microsomes (CYP9M6v2): Both CYP9M6v1 and CYP9M6v2 demonstrated relatively low but consistent permethrin metabolism
- HPTLC autoradiography of metabolites, insect-cell microsomes (CYP9M6v1): Both CYP9M6v1 and CYP9M6v2 demonstrated relatively low but consistent permethrin metabolism
